How the values were obtained:
Type in all cases: cell-based
[1] = tested on: Alexa Fluor647 labelled human IgE; assay: Uptake assay: internalization of Alexa Fluor 647 labelled IgE in ASGPR1/2 KO HepG2 cells (Example 6); settings: equimolar conjugate and AF647 IgE, normalized to unconjugated parent protein
How it was run: (§1)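 HepG2 cells (wild type or ASGPR1/2 KO) pre-blocked with Fc receptor blocker, then exposed 2 h to conjugate precomplexed equimolar with AF647-labelled human IgE (30 min, room temperature) at 300 nM to 1.23 nM final. Median cellular AF647 by flow cytometry, normalized to unconjugated parent protein.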

[2] = tested on: Alexa Fluor647 labelled human IgE; assay: Uptake assay: internalization of Alexa Fluor 647 labelled IgE in wild type HepG2 cells (Example 6); settings: equimolar conjugate and AF647 IgE, 2 hours, median cellular AF647 intensity by flow cytometry, normalized to unconjugated parent protein
How it was run: as §1

recombinant IgE = assay: Degradation of super-stoichiometric levels of target in HepG2 cells (Example 13, Table 31); settings: 1 nM conjugate and 25 nM IgE for three days, (A-B)/C IgE depleted relative to conjugate, average of two replicate wells
How it was run: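 HepG2 cells in EMEM/10% FBS were incubated with 1 nM conjugate plus 25 nM recombinant IgE for 72 h. IgE in medium at start and end quantified by MSD/ELISA-type assay; value is molar equivalents IgE depleted per conjugate, (initial − day-3 IgE)/conjugate concentration, mean of two wells.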

human IgE = assay: Degradation of initial and subsequent dose of target in HepG2 cells (Example 12, Table 30); settings: normalized to unconjugated; for Normalized Fluorescence Post Wash Median Green: after wash, probe-conjugated IgE added for 4 hours, subsequent dose of target; for Normalized Fluorescence Precomplex Median Deep Red: precomplexed equimolar conjugate:IgE (cathepsin-cleavable quenched fluorescent probe) added for 2 hours, initial dose of target
How it was run: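 HepG2 cells exposed 2 h to conjugate precomplexed (30 min, 37 °C, equimolar) with 647-quenched-probe human IgE, acid/ice washed, then given 488-probe IgE without conjugate for 4 h. Median 647 (initial) and 488 (recycled) fluorescence by flow cytometry, normalised to unconjugated parent; mean of two wells.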

HepG2 cells = assay: Externalization of conjugates from a cell following internalization (cycling), high-throughput format (Example 11); settings: 50 nM conjugate 1 hour, stringent washes, Alexa Fluor 647-labelled a-human IgG 1 hour, FACS, normalized to unconjugated parent protein, average of two replicate wells
How it was run: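 25,000 HepG2 cells incubated with conjugate for 1 h at indicated concentrations, then chilled and washed (DPBS, pH 5.2 acetate, pH 2.5 EBSS) to strip surface conjugate. Recycled conjugate captured by 1 μg/ml AF647 anti-human IgG in 37 °C EMEM for 1 h; median AF647 by flow cytometry, mean of two wells.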

[3] = tested on: LysoLight-labelled human IgE; assay: Lysosomal degradation of LysoLight-labelled IgE in HepG2 cells, live cell imaging (Example 7); settings: equimolar conjugate:LysoLight IgE, area under the curve of deep red fluorescence over three days, normalized to unconjugated parent protein
How it was run: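 Conjugate precomplexed 30 min at room temperature with equimolar LysoLight-labelled human IgE, added to Fc-receptor-blocked HepG2 cells at final 100–1.23 nM. Red fluorescence, released on lysosomal cathepsin cleavage, imaged hourly for 72 h starting 1 h post-addition; area under the fluorescence–time curve taken as total degradation.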

CC(=O)N[C@@H]1[C@@H](O)[C@@H](O)[C@@H](CO)O[C@@H]1CCCOCCOCCNC(=O)NCCCC(C)(CCCNC(=O)NCCOCCOCCC[C@H]1O[C@H](CO)[C@H](O)[C@H](O)[C@H]1NC(C)=O)NC(=O)NCCOCCOCCOCCNC(=O)c1ccc(N2C(=O)C=CC2=O)cc1 (stereo partly drawn) [Compound 2318, N,N′-((2R,2′R,3R,3′R,4R,4′R,5R,5′R,6R,6′R)-(16-(3-(1-(4-(2,5-dioxo-2,5-dihydro-1H-pyrrol-1-yl)phenyl)-1-oxo-5,8,11-trioxa-2-azatridecan-13-yl)ureido)-16-methyl-11,21-dioxo-4,7,25,28-tetraoxa-10,12,20,22-tetraazahentriacontane-1,31-diyl)bis(4,5-dihydroxy-6-(hydroxymethyl)tetrahydro-2H-pyran-2,3-diyl))diacetamide]
Normalized Fluorescence 100 nM ASGPR KO [1]: 1.0
Normalized Fluorescence 3.7 nM WT [2]: 44.1
Normalized Fluorescence 100 nM WT [2]: 159.1
Average Degradation (Molar equivalents) (recombinant IgE): 4.2 Molar equivalents
Normalized Fluorescence Post Wash Median Green (human IgE): 2.0
Normalized Fluorescence Precomplex Median Deep Red (human IgE): 2.4
Normalized Fluorescence (HepG2 cells): 27.4
Normalized Fluorescence 3.7 nM [3]: 4.1
Normalized Fluorescence 100 nM [3]: 2.1

CC(=O)N[C@@H]1[C@@H](O)[C@@H](O)[C@@H](CO)O[C@@H]1CCCOCCOCCNC(=O)NCCOCCOCCOCCOCCOCCNC(=O)c1ccc(N2C(=O)C=CC2=O)cc1 [Compound 2319-C, N-(29-((2R,3R,4R,5R,6R)-3-acetamido-4,5-dihydroxy-6-(hydroxymethyl)tetrahydro-2H-pyran-2-yl)-19-oxo-3,6,9,12,15,23,26-heptaoxa-18,20-diazanonacosyl)-4-(2,5-dioxo-2,5-dihydro-1H-pyrrol-1-yl)benzamide]
Normalized Fluorescence 100 nM ASGPR KO [1]: 1.4
Normalized Fluorescence 3.7 nM WT [2]: 2.3
Normalized Fluorescence 100 nM WT [2]: 16.0
Average Degradation (Molar equivalents) (recombinant IgE): 2.1 Molar equivalents
Normalized Fluorescence Post Wash Median Green (human IgE): 1.1
Normalized Fluorescence Precomplex Median Deep Red (human IgE): 1.2
Normalized Fluorescence (HepG2 cells): 5.0
Normalized Fluorescence 3.7 nM [3]: 1.1
Normalized Fluorescence 100 nM [3]: 1.0

CC(=O)N[C@@H]1[C@@H](O)[C@@H](O)[C@@H](CO)O[C@@H]1CCCOCCOCCNC(=O)NCCCC(C)(CCCNC(=O)NCCOCCOCCC[C@H]1O[C@H](CO)[C@H](O)[C@H](O)[C@H]1NC(C)=O)NC(=O)NCCOCCOCCOCCNC(=O)CBr (stereo partly drawn) [Compound 2320]
Normalized Fluorescence 100 nM ASGPR KO [1]: 1.1
Normalized Fluorescence 3.7 nM WT [2]: 37.7
Normalized Fluorescence 100 nM WT [2]: 224.4
Average Degradation (Molar equivalents) (recombinant IgE): 0.5 Molar equivalents
Normalized Fluorescence Post Wash Median Green (human IgE): 2.7
Normalized Fluorescence Precomplex Median Deep Red (human IgE): 3.2
Normalized Fluorescence (HepG2 cells): 24.1
Normalized Fluorescence 3.7 nM [3]: 6.4
Normalized Fluorescence 100 nM [3]: 2.7

CC(=O)N[C@@H]1[C@@H](O)[C@@H](O)[C@@H](CO)O[C@@H]1CCCOCCOCCNC(=O)NCCCC(CCCNC(=O)NCCOCCOCCC[C@H]1O[C@H](CO)[C@H](O)[C@H](O)[C@H]1NC(C)=O)(CCCNC(=O)NCCOCCOCCC[C@H]1O[C@H](CO)[C@H](O)[C@H](O)[C@H]1NC(C)=O)NC(=O)NCCOCCOCCOCCNC(=O)CBr [Compound 2321]
Normalized Fluorescence 100 nM ASGPR KO [1]: 1.1
Normalized Fluorescence 3.7 nM WT [2]: 80.7
Normalized Fluorescence 100 nM WT [2]: 320.7
Average Degradation (Molar equivalents) (recombinant IgE): 2.4 Molar equivalents
Normalized Fluorescence Post Wash Median Green (human IgE): 3.7
Normalized Fluorescence Precomplex Median Deep Red (human IgE): 4.0
Normalized Fluorescence (HepG2 cells): 49.3
Normalized Fluorescence 3.7 nM [3]: 13.2
Normalized Fluorescence 100 nM [3]: 4.1

CC(=O)N[C@@H]1[C@@H](O)[C@@H](O)[C@@H](CO)O[C@@H]1CCCOCCOCCNC(=O)NCCCC(CCCNC(=O)NCCOCCOCCC[C@H]1O[C@H](CO)[C@H](O)[C@H](O)[C@H]1NC(C)=O)(CCCNC(=O)NCCOCCOCCC[C@H]1O[C@H](CO)[C@H](O)[C@H](O)[C@H]1NC(C)=O)NC(=O)NCCOCCOCCOCCN(C)C(=O)c1ccc(N2C(=O)C=CC2=O)cc1 [Compound 2322]
Normalized Fluorescence 100 nM ASGPR KO [1]: 1.2
Normalized Fluorescence 3.7 nM WT [2]: 68.5
Normalized Fluorescence 100 nM WT [2]: 214.4
Average Degradation (Molar equivalents) (recombinant IgE): 5.2 Molar equivalents
Normalized Fluorescence Post Wash Median Green (human IgE): 3.3
Normalized Fluorescence Precomplex Median Deep Red (human IgE): 3.5
Normalized Fluorescence (HepG2 cells): 46.8
Normalized Fluorescence 3.7 nM [3]: 7.8
Normalized Fluorescence 100 nM [3]: 3.5

O=C(CCOCCOCCOCCNS(=O)(=O)c1ccc(N2C(=O)C=CC2=O)cc1)NC(CCCNC(=O)NCCOCCOCCOC[C@H]1CN([C@H]2CO[C@H](CO)[C@H](O)[C@@H]2O)C(=O)O1)(CCCNC(=O)NCCOCCOCCOC[C@H]1CN([C@H]2CO[C@H](CO)[C@H](O)[C@@H]2O)C(=O)O1)CCCNC(=O)NCCOCCOCCOC[C@H]1CN([C@H]2CO[C@H](CO)[C@H](O)[C@@H]2O)C(=O)O1 [Compound 2324]
Normalized Fluorescence 100 nM ASGPR KO [1]: 1.2
Normalized Fluorescence 3.7 nM WT [2]: 39.2
Normalized Fluorescence 100 nM WT [2]: 207.4
Average Degradation (Molar equivalents) (recombinant IgE): 5.2 Molar equivalents
Normalized Fluorescence Post Wash Median Green (human IgE): 2.9
Normalized Fluorescence Precomplex Median Deep Red (human IgE): 3.2
Normalized Fluorescence (HepG2 cells): 32.2
Normalized Fluorescence 3.7 nM [3]: 5.8
Normalized Fluorescence 100 nM [3]: 2.6

CC(=O)N[C@@H]1[C@@H](O)[C@@H](O)[C@@H](CO)O[C@@H]1c1cc(COCCOCCNC(=O)NCCCC(CCCNC(=O)NCCOCCOCc2cc([C@H]3O[C@H](CO)[C@H](O)[C@H](O)[C@H]3NC(C)=O)on2)(CCCNC(=O)NCCOCCOCc2cc([C@H]3O[C@H](CO)[C@H](O)[C@H](O)[C@H]3NC(C)=O)on2)NC(=O)CCOCCOCCOCCNS(=O)(=O)c2ccc(N3C(=O)C=CC3=O)cc2)no1 [Compound 2325]
Normalized Fluorescence 100 nM ASGPR KO [1]: 1.2
Normalized Fluorescence 3.7 nM WT [2]: 87.8
Normalized Fluorescence 100 nM WT [2]: 270.0
Average Degradation (Molar equivalents) (recombinant IgE): 6.9 Molar equivalents
Normalized Fluorescence Post Wash Median Green (human IgE): 3.6
Normalized Fluorescence Precomplex Median Deep Red (human IgE): 3.9
Normalized Fluorescence (HepG2 cells): 54.2
Normalized Fluorescence 3.7 nM [3]: 15.8
Normalized Fluorescence 100 nM [3]: 3.5

CCC[C@H]1O[C@H](COC)[C@H](O)[C@H](O)[C@H]1Nc1nccc(OCCOCCOCCNC(=O)NCCCC(CCCNC(=O)NCCOCCOCCOc2ccnc(N[C@@H]3[C@@H](O)[C@@H](O)[C@@H](COC)O[C@@H]3CCC)n2)(CCCNC(=O)NCCOCCOCCOc2ccnc(N[C@@H]3[C@@H](O)[C@@H](O)[C@@H](COC)O[C@@H]3CCC)n2)NC(=O)CCOCCOCCOCCNS(=O)(=O)c2ccc(N3C(=O)C=CC3=O)cc2)n1 [Compound 2326]
Normalized Fluorescence 100 nM ASGPR KO [1]: 1.1
Normalized Fluorescence 3.7 nM WT [2]: 89.7
Normalized Fluorescence 100 nM WT [2]: 287.9
Average Degradation (Molar equivalents) (recombinant IgE): 9.0 Molar equivalents
Normalized Fluorescence Post Wash Median Green (human IgE): 4.1
Normalized Fluorescence Precomplex Median Deep Red (human IgE): 4.1
Normalized Fluorescence (HepG2 cells): 57.7
Normalized Fluorescence 3.7 nM [3]: 17.2
Normalized Fluorescence 100 nM [3]: 3.7

O=C(CCOCCOCCOCCNS(=O)(=O)c1ccc(N2C(=O)C=CC2=O)cc1)NC(CCCNC(=O)NCCOCCOCCOCC(F)(F)c1cncc(N[C@H]2CO[C@H](CO)[C@H](O)[C@@H]2O)n1)(CCCNC(=O)NCCOCCOCCOCC(F)(F)c1cncc(N[C@H]2CO[C@H](CO)[C@H](O)[C@@H]2O)n1)CCCNC(=O)NCCOCCOCCOCC(F)(F)c1cncc(N[C@H]2CO[C@H](CO)[C@H](O)[C@@H]2O)n1 [Compound 2327]
Normalized Fluorescence 100 nM ASGPR KO [1]: 1.0
Normalized Fluorescence 3.7 nM WT [2]: 133.1
Normalized Fluorescence 100 nM WT [2]: 268.8
Average Degradation (Molar equivalents) (recombinant IgE): 9.2 Molar equivalents
Normalized Fluorescence Post Wash Median Green (human IgE): 4.6
Normalized Fluorescence Precomplex Median Deep Red (human IgE): 3.7
Normalized Fluorescence (HepG2 cells): 71.2
Normalized Fluorescence 3.7 nM [3]: 24.0
Normalized Fluorescence 100 nM [3]: 2.7

— patent publication US20260224714A1, “CYCLING LYSOSOMAL TARGETING ANTIBODY CONJUGATES” (Lycia Therapeutics, Inc., priority 2023, published 2026)
